The values that follow come from ChEMBL document CHEMBL4308907, “Pyrrolidinone-bearing methylated and halogenated benzenesulfonamides as inhibitors of carbonic anhydrases” (Bioorg Med Chem, 2019).

The target of one assay is Carbonic anhydrase 9 (Homo sapiens, UniProt Q16790). Briefly: Binding affinity to recombinant human CA9 by DSF-based fluorescence thermal shift assay.
In assay [1] the target is Carbonic anhydrase 5B, mitochondrial (Homo sapiens, UniProt Q9Y2D0). Briefly: Binding affinity to recombinant full length N-terminal His6x-tagged human CA5B expressed in Escherichia coli Rosetta 2 (DE3) by DSF-based fluorescence thermal shift assay.
Sequence of Carbonic anhydrase 5B, mitochondrial (Q9Y2D0 whole entry): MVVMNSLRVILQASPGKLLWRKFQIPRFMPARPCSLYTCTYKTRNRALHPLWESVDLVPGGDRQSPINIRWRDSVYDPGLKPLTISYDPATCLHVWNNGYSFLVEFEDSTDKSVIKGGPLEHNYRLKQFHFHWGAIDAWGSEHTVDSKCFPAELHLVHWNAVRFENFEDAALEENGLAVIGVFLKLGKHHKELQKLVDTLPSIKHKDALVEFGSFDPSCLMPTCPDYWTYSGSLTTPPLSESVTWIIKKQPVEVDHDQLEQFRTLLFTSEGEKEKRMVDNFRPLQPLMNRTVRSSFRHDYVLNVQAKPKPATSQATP
For the next assay, the target named is Carbonic anhydrase 12 (Homo sapiens, UniProt O43570). As to the kind of experiment: Binding affinity to recombinant human CA12 by DSF-based fluorescence thermal shift assay.
Sequence of Carbonic anhydrase 12 (O43570 whole entry, the tested form may be a part): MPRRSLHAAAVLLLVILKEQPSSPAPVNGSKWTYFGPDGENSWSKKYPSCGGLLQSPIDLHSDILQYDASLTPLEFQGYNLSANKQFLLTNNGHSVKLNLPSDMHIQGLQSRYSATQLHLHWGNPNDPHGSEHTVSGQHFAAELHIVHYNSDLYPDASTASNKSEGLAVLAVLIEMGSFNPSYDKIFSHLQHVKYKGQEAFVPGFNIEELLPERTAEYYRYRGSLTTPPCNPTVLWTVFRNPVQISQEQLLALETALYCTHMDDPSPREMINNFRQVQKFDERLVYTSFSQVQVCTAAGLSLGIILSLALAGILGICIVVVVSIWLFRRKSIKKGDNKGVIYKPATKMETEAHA
The target in the next assay is Carbonic anhydrase 14 (Homo sapiens, UniProt Q9ULX7). As to the kind of experiment: Binding affinity to recombinant N-terminal His6x-tagged human CA14 (20 to 280 residues) catalytic domain expressed in Escherichia coli Rosetta 2 (DE3) by DSF-based fluorescence thermal shift assay.
Sequence of Carbonic anhydrase 14 (Q9ULX7 whole entry, the tested form may be a part): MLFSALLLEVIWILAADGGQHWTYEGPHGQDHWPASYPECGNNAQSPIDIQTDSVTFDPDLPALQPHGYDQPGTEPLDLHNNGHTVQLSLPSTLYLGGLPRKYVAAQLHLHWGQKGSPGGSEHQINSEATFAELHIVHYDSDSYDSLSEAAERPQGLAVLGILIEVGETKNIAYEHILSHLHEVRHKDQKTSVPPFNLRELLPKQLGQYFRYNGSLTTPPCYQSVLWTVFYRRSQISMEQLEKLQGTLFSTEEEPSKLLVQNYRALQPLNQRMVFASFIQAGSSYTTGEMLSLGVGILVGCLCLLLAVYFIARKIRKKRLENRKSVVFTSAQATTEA
A further assay deals with Carbonic anhydrase 6 (Homo sapiens, UniProt P23280). Briefly: Binding affinity to recombinant human CA6 by DSF-based fluorescence thermal shift assay.
Sequence of Carbonic anhydrase 6 (P23280 whole entry): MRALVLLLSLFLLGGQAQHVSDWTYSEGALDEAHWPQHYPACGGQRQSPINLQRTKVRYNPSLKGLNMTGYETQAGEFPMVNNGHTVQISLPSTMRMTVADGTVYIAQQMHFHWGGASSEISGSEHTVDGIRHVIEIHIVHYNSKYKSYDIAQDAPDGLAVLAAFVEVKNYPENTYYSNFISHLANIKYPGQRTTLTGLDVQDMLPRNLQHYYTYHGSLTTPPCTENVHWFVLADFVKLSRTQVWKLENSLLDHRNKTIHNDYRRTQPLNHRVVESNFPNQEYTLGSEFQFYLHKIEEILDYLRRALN
In the next assay the target is Carbonic anhydrase 4 (Homo sapiens, UniProt P22748). Briefly: Binding affinity to recombinant human CA4 by DSF-based fluorescence thermal shift assay.
Sequence of Carbonic anhydrase 4 (P22748 whole entry): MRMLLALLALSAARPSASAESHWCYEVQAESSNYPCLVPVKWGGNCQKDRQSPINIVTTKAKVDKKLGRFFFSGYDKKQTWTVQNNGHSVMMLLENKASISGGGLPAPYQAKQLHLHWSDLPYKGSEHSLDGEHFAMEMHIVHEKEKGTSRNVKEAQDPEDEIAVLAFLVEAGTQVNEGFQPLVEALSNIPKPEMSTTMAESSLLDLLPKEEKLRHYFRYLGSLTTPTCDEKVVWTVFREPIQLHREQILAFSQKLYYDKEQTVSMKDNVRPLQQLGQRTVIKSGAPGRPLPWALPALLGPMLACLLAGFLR
Another assay addresses Carbonic anhydrase 7 (Homo sapiens, UniProt P43166). Briefly: Binding affinity to recombinant human CA7 by DSF-based fluorescence thermal shift assay.
The target in the next assay is Carbonic anhydrase 3 (Homo sapiens, UniProt P07451). As to the kind of experiment: Binding affinity to recombinant N-terminal His6x-tagged human CA3 (4 to 260 residues) expressed in Escherichia coli BL21(DE3) by DSF-based fluorescence thermal shift assay.
Sequence of Carbonic anhydrase 3 (P07451 whole entry, the tested form may be a part): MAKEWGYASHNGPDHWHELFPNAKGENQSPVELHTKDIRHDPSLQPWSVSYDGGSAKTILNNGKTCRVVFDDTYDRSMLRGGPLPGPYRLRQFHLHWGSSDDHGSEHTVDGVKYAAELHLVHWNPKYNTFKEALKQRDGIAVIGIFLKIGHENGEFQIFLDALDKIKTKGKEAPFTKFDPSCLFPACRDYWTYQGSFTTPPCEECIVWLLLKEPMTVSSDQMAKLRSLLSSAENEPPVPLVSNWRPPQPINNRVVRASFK
A further assay addresses Carbonic anhydrase 1 (Homo sapiens, UniProt P00915). Briefly: Binding affinity to recombinant human CA1 by DSF-based fluorescence thermal shift assay.
In assay [2] the target is Carbonic anhydrase 5A, mitochondrial (Homo sapiens, UniProt P35218). Briefly: Binding affinity to recombinant full length C-terminal His6x-tagged human CA5A expressed in Escherichia coli BL21(DE3) by DSF-based fluorescence thermal shift assay.
Sequence of Carbonic anhydrase 5A, mitochondrial (P35218 whole entry): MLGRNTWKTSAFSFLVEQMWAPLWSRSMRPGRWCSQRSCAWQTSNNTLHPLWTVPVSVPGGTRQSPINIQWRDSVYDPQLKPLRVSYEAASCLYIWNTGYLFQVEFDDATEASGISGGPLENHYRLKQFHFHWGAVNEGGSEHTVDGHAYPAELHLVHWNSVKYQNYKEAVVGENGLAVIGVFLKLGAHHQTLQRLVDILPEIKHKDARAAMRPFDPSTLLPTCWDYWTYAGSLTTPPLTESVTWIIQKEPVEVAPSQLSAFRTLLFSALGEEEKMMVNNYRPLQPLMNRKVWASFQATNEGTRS
In assay [3] the target is T1, Carbonic anhydrase 2 (Homo sapiens, UniProt P00918). As to the kind of experiment: Binding affinity to recombinant human CA2 by DSF-based fluorescence thermal shift assay.
The target in a further assay is Carbonic anhydrase 13 (Homo sapiens, UniProt Q8N1Q1). As to the kind of experiment: Binding affinity to recombinant human CA13 by DSF-based fluorescence thermal shift assay.
Sequence of Carbonic anhydrase 13 (Q8N1Q1 whole entry): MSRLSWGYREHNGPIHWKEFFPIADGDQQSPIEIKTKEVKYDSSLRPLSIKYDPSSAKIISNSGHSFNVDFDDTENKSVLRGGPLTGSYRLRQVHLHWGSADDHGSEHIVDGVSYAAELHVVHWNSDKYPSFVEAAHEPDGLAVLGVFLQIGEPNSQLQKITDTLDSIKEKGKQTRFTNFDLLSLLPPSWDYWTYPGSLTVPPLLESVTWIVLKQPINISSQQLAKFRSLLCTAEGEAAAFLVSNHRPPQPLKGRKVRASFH
Assay [4] has as its target T1, Carbonic anhydrase 2. As to the kind of experiment: Binding affinity to recombinant human CA2 in pH 7 sodium phosphate buffer at 37 degC by isothermal titration calorimetry.

The term Kd denotes the concentration at which binding is half-saturated.

Bounds are passed on as bounds.

Sequence of Carbonic anhydrase 7 (P43166 whole entry, the tested form may be a part): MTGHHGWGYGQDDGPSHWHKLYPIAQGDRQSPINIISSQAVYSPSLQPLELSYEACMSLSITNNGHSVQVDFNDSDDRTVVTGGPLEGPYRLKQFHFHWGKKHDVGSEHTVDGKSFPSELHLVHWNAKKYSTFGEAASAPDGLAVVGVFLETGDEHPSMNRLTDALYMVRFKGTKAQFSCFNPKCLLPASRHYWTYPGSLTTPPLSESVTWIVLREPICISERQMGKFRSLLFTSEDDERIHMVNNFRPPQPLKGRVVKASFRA
Sequence of Carbonic anhydrase 1 (P00915 whole entry): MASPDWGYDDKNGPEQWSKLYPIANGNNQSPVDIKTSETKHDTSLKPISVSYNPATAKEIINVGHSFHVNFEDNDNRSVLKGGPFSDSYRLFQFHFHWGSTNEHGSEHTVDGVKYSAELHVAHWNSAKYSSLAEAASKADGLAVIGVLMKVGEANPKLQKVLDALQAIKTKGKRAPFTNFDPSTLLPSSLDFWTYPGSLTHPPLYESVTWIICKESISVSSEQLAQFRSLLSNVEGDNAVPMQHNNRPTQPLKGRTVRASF

On to `Cc1cc(N2CC(C(=O)O)CC2=O)cc(C)c1S(N)(=O)=O` (centres undefined), for which the Kd at Carbonic anhydrase 9 was 5 µM; in [1] it was 3.3 µM; on Carbonic anhydrase 12, 7.7 µM; at Carbonic anhydrase 14, 3.2 µM; on Carbonic anhydrase 6, 25 µM; on Carbonic anhydrase 4, 5.9 µM. The Kd on Carbonic anhydrase 7 is 20 µM; on Carbonic anhydrase 3, at least 200 µM; on Carbonic anhydrase 1, 20 µM; in assay [2], 8.3 µM; on Carbonic anhydrase 2 [3], 12 µM; at Carbonic anhydrase 13, 8.3 µM.

On to `Cc1cc(N2CC(C(=O)NN)CC2=O)cc(C)c1S(N)(=O)=O` (centres undefined), for which the Kd on Carbonic anhydrase 9 was determined as 13 µM; in assay [1], 1.4 µM; on Carbonic anhydrase 12, 50 µM; at Carbonic anhydrase 14 it was 5 µM; at Carbonic anhydrase 6, 50 µM; on Carbonic anhydrase 4 it was 9.1 µM. The Kd at Carbonic anhydrase 7 is 50 µM; on Carbonic anhydrase 3 it was at least 200 µM; at Carbonic anhydrase 1, 17 µM; in assay [2], 20 µM; at Carbonic anhydrase 2 [3] it was 11 µM; on Carbonic anhydrase 13 it was 100 µM.

On to `Cc1cc(N2CC(C(=O)O)CC2=O)c(Cl)c(C)c1S(N)(=O)=O` (centres undefined), for which the Kd at Carbonic anhydrase 9 turned out to be 0.29 µM; in assay [1], 0.53 µM; on Carbonic anhydrase 12 it was 1.3 µM; on Carbonic anhydrase 6, 6.3 µM; at Carbonic anhydrase 2 [4], 0.697 µM; at Carbonic anhydrase 4, 0.36 µM. Also, the dissociation constant (Kd) at Carbonic anhydrase 7 was 0.056 µM; at Carbonic anhydrase 3, 110 µM; at Carbonic anhydrase 1, 4.3 µM; at Carbonic anhydrase 2 [3] it was 0.22 µM; on Carbonic anhydrase 13 it was 0.22 µM.

As for `Cc1cc(N2CC(C(=O)N/N=C/c3ccccc3)CC2=O)c(Cl)c(C)c1S(N)(=O)=O` (centres undefined), the Kd on Carbonic anhydrase 9 is 0.1 µM; in assay [1], 0.02 µM; at Carbonic anhydrase 12, 0.77 µM; at Carbonic anhydrase 14, 0.012 µM; on Carbonic anhydrase 6 it was 1.4 µM; on Carbonic anhydrase 4, 0.77 µM. In addition, the Kd on Carbonic anhydrase 7 was 0.033 µM; on Carbonic anhydrase 3 it was at least 200 µM; on Carbonic anhydrase 1 it was 0.56 µM; on Carbonic anhydrase 2 [3], 0.056 µM; at Carbonic anhydrase 13, 0.033 µM.

`NS(=O)(=O)c1ccc(N2CC(C(=O)N/N=C/c3ccccc3)CC2=O)cc1` (centres undefined): the Kd on Carbonic anhydrase 9 is 0.059 µM; in assay [1], 1.3 µM; at Carbonic anhydrase 12, 2.5 µM; at Carbonic anhydrase 14, 0.2 µM; on Carbonic anhydrase 6, 2 µM; on Carbonic anhydrase 4 it was 1.3 µM. The Kd was 0.5 µM at Carbonic anhydrase 7; at least 200 µM at Carbonic anhydrase 3; 0.63 µM on Carbonic anhydrase 1; 1.7 µM in assay [2]; 0.17 µM at Carbonic anhydrase 2 [3]; 0.83 µM on Carbonic anhydrase 13.

As for `Cc1cc(N2CC(C(=O)N/N=C/c3ccccc3)CC2=O)cc(C)c1S(N)(=O)=O` (centres undefined), the equilibrium dissociation constant (Kd) on Carbonic anhydrase 9 came to 2 µM; in [1] it was 0.71 µM; at Carbonic anhydrase 12, 29 µM; on Carbonic anhydrase 14 it was 2 µM; on Carbonic anhydrase 6, 25 µM; on Carbonic anhydrase 4 it was 5 µM. For the same molecule, the Kd was 30 µM on Carbonic anhydrase 7; at least 200 µM on Carbonic anhydrase 3; 2.2 µM on Carbonic anhydrase 1; 2 µM in [2]; 2.2 µM on Carbonic anhydrase 2 [3]; 22 µM on Carbonic anhydrase 13.

As to `Cc1cc(C)n(C(=O)C2CC(=O)N(c3cc(C)c(S(N)(=O)=O)c(C)c3)C2)n1` (centres undefined), the Kd at Carbonic anhydrase 9 amounted to 2 µM; in assay [1], 0.5 µM; at Carbonic anhydrase 12, 8.3 µM; at Carbonic anhydrase 6, 28 µM; on Carbonic anhydrase 2 [4], 0.318 µM; at Carbonic anhydrase 4 it was 6 µM. Besides, the Kd on Carbonic anhydrase 7 is 3.3 µM; at Carbonic anhydrase 3 it was at least 200 µM; on Carbonic anhydrase 1 it was 1.5 µM; on Carbonic anhydrase 2 [3], 0.91 µM; on Carbonic anhydrase 13, 3.7 µM.

With `Cc1cc(S(N)(=O)=O)c(C)cc1N1CC(C(=O)O)CC1=O` (centres undefined), the Kd on Carbonic anhydrase 9 was found to be 2.6 µM; in [1], 1.1 µM; on Carbonic anhydrase 12 it was 8.1 µM; on Carbonic anhydrase 14 it was 3.9 µM; on Carbonic anhydrase 6 it was 22 µM; on Carbonic anhydrase 4 it was 19 µM. Further, the Kd on Carbonic anhydrase 7 is 2.7 µM; at Carbonic anhydrase 3 it was 160 µM; at Carbonic anhydrase 1 it was 38 µM; on Carbonic anhydrase 2 [3], 6.4 µM; on Carbonic anhydrase 13, 0.67 µM.

Regarding `NNC(=O)C1CC(=O)N(c2ccc(S(N)(=O)=O)cc2)C1` (centres undefined), the Kd was determined as 0.63 µM at Carbonic anhydrase 9; 10 µM in [1]; 4 µM on Carbonic anhydrase 12; 0.91 µM on Carbonic anhydrase 14; 10 µM on Carbonic anhydrase 6; 2.2 µM at Carbonic anhydrase 4. The Kd at Carbonic anhydrase 7 was 0.67 µM; at Carbonic anhydrase 3 it was at least 200 µM; on Carbonic anhydrase 1, 3.3 µM; in assay [2], 50 µM; at Carbonic anhydrase 2 [3], 0.5 µM; at Carbonic anhydrase 13 it was 7.7 µM.
